Source: US20250115581A1, “SUBSTITUTED PIPERIDINES AS CK1A DEGRADERS” (Monte Rosa Therapeutics, Inc., priority 2022, published 2025)

Tests used:
[1] = target: T1, CK1α (Homo sapiens, UniProt P48729+Q96SW2); assay: CK1α NanoBit Assay (HiBiT-tagged CSNK1A1 in HEK293 cells, luminescence); format: cell-based; conditions: 24 h
T1 construct: HEK293 clonal lines with CRISPR KI HiBiT tag on CSNK1A1; host or cells: HEK293 clonal line, CRISPR knock-in HiBiT at the CSNK1A1 locus, stably expressing LgBiT
Procedure: HEK293 clonal lines with CRISPR KI HiBiT tag on CSNK1A1 and stably expressing LgBiT protein were obtained from Promega (Madison, WI). Cells were plated at 5000 cells per well using Multiflo (BioTek) in 384-well white solid bottom plates (Corning, 3570BC) in 25 μl volume in DMEM media (DMEM, high glucose, HEPES, no phenol red (ThermoFisher Scientific, 21063029)) containing 10% FBS (Corning, 35-075-CV), 1% Penicillin/Streptomycin ((ThermoFisher Scientific, 15140-122), and 0.2% Endurazine (Nano-Glo Endurazine Live Cell Substrate (Promega, N2571)). Cells were incubated for 16 hours at 37° C., 5% CO2. Depending on experiment 25 or 75 nL of a compound at 10 mM were added into the plate using an Echo® 650 liquid handler (Labcyte) to achieve final concentration of 10 or 30 μM in wells. Cells were incubated at 37° C., 5% CO2 for 24 hours and then signal was read on a Pherastar FSX using “LUM plus” optic module.
Data analysis was performed in Scinamic (Scinamic, Cambridge, MA). Luminescence response (R) was calculated by the formula: response=100*(S−N)/(P−N) where S is the signal of the well, N and P the mean negative and positive control values respectively of the same plate. The luminescence response was then fitted in Scinamic using a 3-parameter agonist logistic fit (hillslope=1, EC50>0, top/bottom unconstrained).
DC50 data are reported in Table 2 for compounds in Table 1. In Table 2 below, According to the code, A represents a DC50 value of ≤0.1 μM, B represents a DC50 value >0.1 μM and ≤1 μM, C represents an DC50 value >1 μM.

[2] = target: CRBN/DDB1 (Homo sapiens, UniProt Q96SW2); assay: HTRF binding assay (displacement of Cy5-thalidomide probe from CRBN/DDB1); conditions: CRBN/DDB1 2.5 nM, Cy5-Thalidomide 100 nM, 30 min; geometric mean; read-out: HTRF_Thali_Disp_DR_geo_IC50
Sequence of CRBN/DDB1 (Q96SW2 whole entry): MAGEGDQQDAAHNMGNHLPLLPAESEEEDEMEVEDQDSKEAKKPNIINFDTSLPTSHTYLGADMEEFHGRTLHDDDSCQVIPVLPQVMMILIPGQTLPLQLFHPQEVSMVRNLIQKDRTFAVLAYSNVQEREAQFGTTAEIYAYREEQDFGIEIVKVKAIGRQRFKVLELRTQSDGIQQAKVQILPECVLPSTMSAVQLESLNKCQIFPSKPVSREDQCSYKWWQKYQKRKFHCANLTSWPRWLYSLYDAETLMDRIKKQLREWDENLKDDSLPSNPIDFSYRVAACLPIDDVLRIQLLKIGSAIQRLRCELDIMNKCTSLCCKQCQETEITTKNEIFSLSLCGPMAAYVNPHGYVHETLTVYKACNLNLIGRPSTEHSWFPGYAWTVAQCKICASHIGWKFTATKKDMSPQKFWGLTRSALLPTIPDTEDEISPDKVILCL
Sequence of CRBN/DDB1 (Q16531 whole entry partner): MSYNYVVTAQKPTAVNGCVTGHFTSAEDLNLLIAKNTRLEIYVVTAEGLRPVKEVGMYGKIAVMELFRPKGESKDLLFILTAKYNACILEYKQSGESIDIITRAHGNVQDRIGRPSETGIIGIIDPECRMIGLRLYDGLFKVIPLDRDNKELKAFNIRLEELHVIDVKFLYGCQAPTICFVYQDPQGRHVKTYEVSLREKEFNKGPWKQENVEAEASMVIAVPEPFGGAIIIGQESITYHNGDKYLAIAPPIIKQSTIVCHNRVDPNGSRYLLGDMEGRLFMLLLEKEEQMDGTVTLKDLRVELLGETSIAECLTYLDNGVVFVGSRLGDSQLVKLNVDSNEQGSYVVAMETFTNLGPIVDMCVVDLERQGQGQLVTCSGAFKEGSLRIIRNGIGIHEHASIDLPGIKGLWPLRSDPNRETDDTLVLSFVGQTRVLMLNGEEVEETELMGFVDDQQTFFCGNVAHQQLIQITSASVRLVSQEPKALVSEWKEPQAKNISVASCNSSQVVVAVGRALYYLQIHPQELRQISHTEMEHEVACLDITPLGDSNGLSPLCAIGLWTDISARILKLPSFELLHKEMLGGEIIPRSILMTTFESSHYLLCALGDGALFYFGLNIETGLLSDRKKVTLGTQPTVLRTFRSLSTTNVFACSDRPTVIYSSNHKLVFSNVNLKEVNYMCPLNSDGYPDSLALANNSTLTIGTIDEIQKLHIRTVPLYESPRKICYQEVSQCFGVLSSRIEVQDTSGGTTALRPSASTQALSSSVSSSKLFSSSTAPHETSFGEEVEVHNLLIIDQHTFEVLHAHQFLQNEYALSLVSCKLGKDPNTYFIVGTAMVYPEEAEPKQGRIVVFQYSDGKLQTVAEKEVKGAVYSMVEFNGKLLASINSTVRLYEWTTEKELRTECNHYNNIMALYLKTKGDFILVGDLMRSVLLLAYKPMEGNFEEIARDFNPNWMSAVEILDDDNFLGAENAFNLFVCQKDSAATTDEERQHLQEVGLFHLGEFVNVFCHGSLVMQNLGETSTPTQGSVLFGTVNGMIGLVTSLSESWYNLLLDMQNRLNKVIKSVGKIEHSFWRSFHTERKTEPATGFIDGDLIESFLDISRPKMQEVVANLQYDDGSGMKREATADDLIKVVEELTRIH
Source text: Binding of test compounds to CRBN/DDB1 was monitored in an HTRF assay using 1-[5-({2-[2-(2-{[2-(2,6-dioxopiperidin-3-yl)-1,3-dioxo-2,3-dihydro-1H-isoindol-4-yl]oxy}acetamido)ethoxy]ethyl}carbamoyl)pentyl]-3,3-dimethyl-2-[(1E,3E)-5-[(2E)-1,3,3-trimethyl-5-sulfo-2,3-dihydro-1H-indol-2-ylidene]penta-1,3-dien-1-yl]-3H-indol-1-ium-5-sulfonate as a fluorescent probe. In this assay, compounds displace the fluorescently labeled thalidomide-based probe bound to CRBN and fluorescence is monitored with increasing compound concentration. Assays were conducted in Greiner white 384 well HiBase plates (Cat. No 784075-25) in 10 μL total volume. A one pot detection solution of CRBN/DDB1 (2.5 nM), anti-His Terbium Cryptate Gold (1×, PerkinElmer Cat. #: 61HI2TLB), and Cy5-Thalidomide (100 nM, Tenova Cat.: T52461) was prepared in 20 mM HEPES, 20 mM NaCl, 0.2 mM TCEP, 0.2 mM EDTA, and 0.005% Tween20 was dispensed to each assay plate. Test compounds were stored in dry, ambient temperatures at 10 mM. A 10-point, 1:3 dilution series was prepared from 10 mM stock concentrations in Echo-compatible LDV plates. 10 nL of each compound dilution series was dispensed into assays wells using an Echo 650 (Labcyte inc. USA). 10 nL of 10 mM lenalidomide (Selleckchem Cat no. S1029) was transferred into the active-control wells for the assay and 10 nL of DMSO was transferred into the negative control wells. The assay was then allowed to incubate for 30 min at ambient temperature after transferring the test compounds. Plate measurements were taken on a Pherastar FSX (BMG Labtech, Germany) using the HTRF Red filter (Ex. 337 nm, em1: 620 nm, em2: 665 nm) (Flashes: 50, Integration time: 60-400 μs, Z-height: 10 mm, Ratio-multiplier: 10,000). Analysis, HTRF ratio and IC50 values were derived using KNIME analytics (KNIME Zurich) transformation and fitting within Collaborative Drug Discovery (Collaborative Drug Discovery USA) using a 4-parameter logistic fit. HTRF ratio calculation was performed using the following formula: […]
where em665 nm represents the measured emission at 665 nm upon excitation at 337 nm and em620 nm the measured emission at 620 nm upon excitation at 337 nm. The 4 parameter logistic fitting model was performed using the following formula: […]
where Y represents the HTRF ratio response (as defined previously), X the compound concentration in μM, Ymin the minimum response plateau, Ymax the maximum response plateau, IC50 the concentration of […] that gives a response half way between Ymin and Ymax and HillSlope the steepness of the family of curves. No fitting model constraints was applied on Ymin, or Ymax whilst IC50>0 and −0.5>HillSlope>−3 Cheng-Prusoff transformation
Ki values were derived from the geometric mean of the IC50 values using the Cheng-Prusoff transformation:
where [L] represents the concentration of fluorescent probe in […], Kd the affinity (binding constant) of the fluorescent probe in units of μM and IC50 the concentration of agonist that gives a response halfway between Ymin and Ymax (as described in 1.2.1)
Analysis and IC50 values were derived using KNIME analytics (KNIME, Zurich) transformation and fitting within Collaborative Drug Discovery (Collaborative Drug Discovery, USA) as described in 1.2.1. Ki values were derived from the geometric mean of the IC50 values using the Cheng-Prusoff transformation as described in 2.2.2. Data was visualized in GraphPad Prism 8.1.2 (GraphPad, USA) and reported as mean and standard deviation. Microsoft Office Excel 2012 (Redmond, WA) was used for calculation of mean and standard deviation.
IC50 data are reported in Table 3 for compounds in Table 1. In Table 3 below, According to the code, A represents a IC50 value of ≤0.1 μM, B represents a IC50 value >0.1 μM and ≤1 μM, C represents an IC50 value >1 μM.

T1 sequence (P48729 whole entry): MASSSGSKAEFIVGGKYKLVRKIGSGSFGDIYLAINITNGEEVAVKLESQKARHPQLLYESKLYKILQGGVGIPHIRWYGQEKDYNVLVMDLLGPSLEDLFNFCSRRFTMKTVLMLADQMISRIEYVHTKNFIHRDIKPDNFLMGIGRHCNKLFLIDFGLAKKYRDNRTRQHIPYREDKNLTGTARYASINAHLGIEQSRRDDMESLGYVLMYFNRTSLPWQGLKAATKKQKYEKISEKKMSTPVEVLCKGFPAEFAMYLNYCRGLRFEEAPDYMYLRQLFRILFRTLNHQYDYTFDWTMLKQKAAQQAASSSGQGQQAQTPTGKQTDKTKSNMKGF
T1 sequence (Q96SW2 whole entry): as the sequence (Q96SW2 whole entry) above
T1 sequence (Q16531 whole entry partner): as the sequence (Q16531 whole entry partner) above

Structure (SMILES) | DC50 [1] [µM] | IC50 [2] [nM]
Cc1ccc(N2C(=O)N(c3ccc4c(c3)CN(C3CCC(=O)NC3=O)C4=O)CC2C)cn1 (centres unmarked) [Compound 122, 3-(5-(4-methyl-3-(6-methylpyridin-3-yl)-2-oxoimidazolidin-1-yl)-1-oxoisoindolin-2-yl)piperidine-2,6-dione] | 0.1 to 1 | > 1000
C[C@@H]1CN(c2ccc3c(c2)CN(C2CCC(=O)NC2=O)C3=O)C(=O)N1c1cnccn1 (stereo partly drawn) [Compound 132, 3-(5-((R)-4-methyl-2-oxo-3-(pyrazin-2-yl)imidazolidin-1-yl)-1-oxoisoindolin-2-yl)piperidine-2,6-dione] | ≤ 0.1 | 100 to 1000
O=C1CCC(N2Cc3cc(N4CCN(C5C6CCCC65)C4=O)ccc3C2=O)C(=O)N1 (centres unmarked) [Compound 160, 3-(5-(3-(bicyclo[3.1.0]hexan-6-yl)-2-oxoimidazolidin-1-yl)-1-oxoisoindolin-2-yl)piperidine-2,6-dione] | 0.1 to 1 | 100 to 1000
Cc1ccc(N2C(=O)N(c3ccc4c(c3)CN(C3CCC(=O)NC3=O)C4=O)C[C@@H]2C(F)F)cc1 (stereo partly drawn) [Compound 158, 3-(5-((R)-4-(difluoromethyl)-2-oxo-3-(p-tolyl)imidazolidin-1-yl)-1-oxoisoindolin-2-yl)piperidine-2,6-dione] | 0.1 to 1 | 100 to 1000
O=C1CCC(N2Cc3cc(N4CCN(c5cccc6c5CCO6)C4=O)ccc3C2=O)C(=O)N1 (centres unmarked) [Compound 140, 3-(5-(3-(2,3-dihydrobenzofuran-4-yl)-2-oxoimidazolidin-1-yl)-1-oxoisoindolin-2-yl)piperidine-2,6-dione] | ≤ 0.1 | 100 to 1000
COCc1cc(C)ccc1N1CCN(c2ccc3c(c2)CN(C2CCC(=O)NC2=O)C3=O)C1=O (centres unmarked) [Compound 166, 3-(5-(3-(2-(methoxymethyl)-4-methylphenyl)-2-oxoimidazolidin-1-yl)-1-oxoisoindolin-2-yl)piperidine-2,6-dione] | 0.1 to 1 | 100 to 1000
COC1(c2ccc(N3CCN(c4ccc5c(c4)CN(C4CCC(=O)NC4=O)C5=O)C3=O)cc2)CC1 (centres unmarked) [Compound 133, 3-(5-(3-(4-(1-methoxycyclopropyl)phenyl)-2-oxoimidazolidin-1-yl)-1-oxoisoindolin-2-yl)piperidine-2,6-dione] | ≤ 0.1 | 100 to 1000
C[C@@H]1CN(c2ccc3c(c2)CN(C2CCC(=O)NC2=O)C3=O)C(=O)N1c1ccncn1 (stereo partly drawn) [Compound 180, 3-(5-((R)-4-methyl-2-oxo-3-(pyrimidin-4-yl)imidazolidin-1-yl)-1-oxoisoindolin-2-yl)piperidine-2,6-dione] | > 1 | > 1000
O=C1CCC(N2Cc3cc(N4CCN(C5CC6(COC6)C5)C4=O)ccc3C2=O)C(=O)N1 (centres unmarked) [Compound 171, 3-(1-oxo-5-(2-oxo-3-(2-oxaspiro[3.3]heptan-6-yl)imidazolidin-1-yl)isoindolin-2-yl)piperidine-2,6-dione] | 0.1 to 1 | 100 to 1000
O=C1CCC(N2Cc3cc(N4CCN(c5ccc6c(c5)OCC6)C4=O)ccc3C2=O)C(=O)N1 (centres unmarked) [Compound 127, 3-(5-(3-(2,3-dihydrobenzofuran-6-yl)-2-oxoimidazolidin-1-yl)-1-oxoisoindolin-2-yl)piperidine-2,6-dione] | ≤ 0.1 | > 1000
COCc1ccccc1N1CCN(c2ccc3c(c2)CN(C2CCC(=O)NC2=O)C3=O)C1=O (centres unmarked) [Compound 168, 3-(5-(3-(2-(methoxymethyl)phenyl)-2-oxoimidazolidin-1-yl)-1-oxoisoindolin-2-yl)piperidine-2,6-dione] | 0.1 to 1 | 100 to 1000
COCc1cccc(N2CCN(c3ccc4c(c3)CN(C3CCC(=O)NC3=O)C4=O)C2=O)c1 (centres unmarked) [Compound 136, 3-(5-(3-(3-(methoxymethyl)phenyl)-2-oxoimidazolidin-1-yl)-1-oxoisoindolin-2-yl)piperidine-2,6-dione] | ≤ 0.1 | 100 to 1000
CN1Cc2cccc(N3CCN(c4ccc5c(c4)CN(C4CCC(=O)NC4=O)C5=O)C3=O)c2C1 (centres unmarked) [Compound 172, 3-(5-(3-(2-methylisoindolin-4-yl)-2-oxoimidazolidin-1-yl)-1-oxoisoindolin-2-yl)piperidine-2,6-dione] | > 1 | ≤ 100
Cc1ccc(N2C(=O)N(c3ccc4c(c3)CN(C3CCC(=O)NC3=O)C4=O)C[C@H]2C(F)F)cc1 (stereo partly drawn) [Compound 173, 3-(5-((S)-4-(difluoromethyl)-2-oxo-3-(p-tolyl)imidazolidin-1-yl)-1-oxoisoindolin-2-yl)piperidine-2,6-dione] | > 1 | 100 to 1000
O=C1CCC(N2Cc3cc(N4CCN(c5ccc(C6CCC6)cc5)C4=O)ccc3C2=O)C(=O)N1 (centres unmarked) [Compound 131, 3-(5-(3-(4-cyclobutylphenyl)-2-oxoimidazolidin-1-yl)-1-oxoisoindolin-2-yl)piperidine-2,6-dione] | ≤ 0.1 | > 1000
C[C@@H]1CN(c2ccc3c(c2)CN(C2CCC(=O)NC2=O)C3=O)C(=O)N1c1ncccn1 (stereo partly drawn) [Compound 182, 3-(5-((R)-4-methyl-2-oxo-3-(pyrimidin-2-yl)imidazolidin-1-yl)-1-oxoisoindolin-2-yl)piperidine-2,6-dione] | > 1 | 100 to 1000
COc1ccc(-n2ccn(-c3ccc4c(c3)CN(C3CCC(=O)NC3=O)C4=O)c2=O)cc1 (centres unmarked) [Compound 102, 3-(5-(3-(4-methoxyphenyl)-2-oxo-2,3-dihydro-1H-imidazol-1-yl)-1-oxoisoindolin-2-yl) piperidine-2,6-dione] | > 1 | 100 to 1000
O=C1CCC(N2Cc3cc(N4CCN(C5CCOCC5)C4=O)ccc3C2=O)C(=O)N1 (centres unmarked) [Compound 183, 3-(1-oxo-5-(2-oxo-3-(tetrahydro-2H-pyran-4-yl)imidazolidin-1-yl)isoindolin-2-yl)piperidine-2,6-dione] | > 1 | 100 to 1000
COCc1ccc(N2CCN(c3ccc4c(c3)CN(C3CCC(=O)NC3=O)C4=O)C2=O)cc1 (centres unmarked) [Compound 128, 3-(5-(3-(4-(methoxymethyl)phenyl)-2-oxoimidazolidin-1-yl)-1-oxoisoindolin-2-yl)piperidine-2,6-dione] | ≤ 0.1 | 100 to 1000
